Experimental data published in patent publication US20250049828A1, “PHARMACEUTICAL COMPOSITION FOR TREATING TUMORS AND USE” (INXMED (NANJING) CO., LTD., priority 2021, published 2025).

Legend:
CT26 cells = test: Microscope observation and flow cytometry of CRT and Annexin-V positive cells; type: cell-based, mouse; conditions: IN10018 5 μM, Adriamycin 1 μM, alone or combined, 48 hours
Description: Then the cells were collected for flow analysis.
The culture conditions were 37° C. and 5% CO2.

[1] = test system: ovarian cancer cells SK-OV-3; test: CCK8 cell viability / cell killing curve; type: cell-based; conditions: Homo sapiens, SK-OV-3, drug alone, 72 hours
Description: A 96-well cell plate was plated with 5000 SK-OV-3 cells/well. After 24 hours, a drug with a maximum concentration of 20 μM was added and diluted with a 3-fold gradient dilution to set a total of 9 concentrations, with the lowest concentration being […]. After the drug and cells were co-incubated for 72 hours, 10 μL of CCK8 solution was added to each well, and the plate was incubated in a 37° C. and 5% carbon dioxide incubator for 2 hours. Then, a microplate reader was used for reading with a set absorbance wavelength of 450 nm. The values read were compared with the DMSO control group and plotted using Graphpad 8.0.
A 96-well cell plate was plated with 5000 SK-OV-3 cells/well. […] Adriamycin at these dosages was combined with 3 μM IN10018. After 72 hours of co-culture with the cells, cell viability was detected using CCK8 method. Graphpad 8.0 was used for plotting.
A 96-well cell plate was plated with 5000 SK-OV-3 cells/well. […] Adriamycin at these dosages was combined with 3 μM Defactinib. After 72 hours of co-culture with the cells, cell viability was detected using CCK8 method. Graphpad 8.0 was used for plotting.

IFN-γ = test: ELISA of IFN-γ in serum of CT26 tumor-bearing mice; type: in vivo, BALB/c mice; conditions: IN10018 25 mg/kg PO QD × 8, Doxil 3 mg/kg i.v. QW × 2; blood 24 hours after the second administration of Doxil; n=5
Description: (§1) BALB/c mice (from Shanghai Lingchang Biotechnology Co., Ltd.) were used to construct the CT26 tumor cell model. When the tumor volume reached about 40 to 60 mm^3, the mice were randomly divided into groups according to the tumor volume and administered.
(§2) 24 hours after the second administration of Doxil, blood was collected from the orbit of four groups of animals. The blood was placed in a collection tube without anticoagulant and left standing to naturally coagulate at room temperature for 30 to 60 minutes. When the blood coagulated, the blood was centrifuged at 1000 rpm, 4° C. for 10 minutes. The upper serum was transferred to a new collection tube and stored in a −80° C. freezer.

Granzyme B = test: ELISA of Granzyme B in serum of CT26 tumor-bearing mice; type: in vivo, BALB/c mice; conditions: IN10018 25 mg/kg PO QD × 8, Doxil 3 mg/kg i.v. QW × 2; blood 24 hours after the second administration of Doxil; n=5
Description: as §1, §2

[2] = test system: FAK and phosphorylated FAKY397; test: FAK knockdown efficiency by western blot; type: cell-based; conditions: 50 nM FAKsiRNA, SK-OV-3 cells, western blot 72 hours after transfection
Description: SK-OV-3 cells were used as the research object, and Lipofectamine 3000 was used to transfect the cells with 50 nM FAKsiRNA. After the assay, proteins were collected to detect the expression of FAK and phosphorylated FAKY397.
Lipofectamine 3000 was used as a transfection reagent. Downstream combination and ICD biomarker assays can be performed 24 hours after the transfection. 72 hours after the transfection, SK-OV-3 cell proteins were collected, and western blot was performed to detect the amount of phosphorylated FAKY397, FAK and alpha tubulin.

Compound	cell-killing effect observed under a microscope (CT26 cells)	IC50 [1]	IFN-γ protein concentration in serum (IFN-γ)	Granzyme B protein concentration in serum (Granzyme B)	knockdown effect on phosphorylated FAKY397 and total FAK proteins [2]
COc1cccc2c1C(=O)c1c(O)c3c(c(O)c1C2=O)C[C@@](O)(C(=O)CO)C[C@@H]3O[C@H]1C[C@H](N)[C@H](O)[C@H](C)O1 [Adriamycin, doxorubicin, reference compound]	had cell-killing effect	0.3 µM			
COc1cc(C(=O)NC2CCN(C)CC2)c(F)cc1Nc1ncc(C(F)(F)F)c(Oc2cccc3c2C(=O)N(C)C3)n1 [IN10018]	in good condition	10 µM	367.24 ± 7.34 pg/mL	50.48 ± 53.08 pg/mL	
FAKsiRNA: small interfering RNA for FAK knockdown, GenePharma; GGGCAUCAUUCAGAAGAUATT / UAUCUUCUGAAUGAUGCCCTT (chemistry not given here)					significant knockdown effect
